Where a name gives a salt, the structure may show the parent alone. Read-outs that look alike come from different tables or passages of the source.
Columns and labels:
[1] = biological target: AOC2 (Homo sapiens (Human), UniProt O75106); assay: AOC2 biochemical assay (Amplex Red)
Experimental: An aliquot of 5 μL of the compound dilution is added to a 96 well plate (flat bottom F, black, GREINER bio-one, #655900) in a DMSO concentration of 2%. […] Cells are cultured for 3 days in EMEM culture medium containing 10% FCS (#04-00-1A, Biological Industries). After washing twice with ice cold PBS, cells are lysed by mechanic homogenation and cleared supernatants are shock frozen in liquid nitrogen and stored at -80° C. […] An Aliquot of 45 μL is added to the compound dilution and incubated for 30 min at 37° C. The enzymatic reaction is started with the addition of 50 μL of Amplex® Red reaction mix (final assay concentration: 100 mM sodiumphosphate, 120 μM Amplex® Red reagent (#A22177 Molecular Probes), 1.5 U/mL Horseradish Peroxidase (#P8375 Sigma-Aldrich), 2 mM phenylethylamine (#[…] Sigma-Aldrich), 0.05% Pluronic F-127 (#P3000MP Sigma-Aldrich), pH 7.4, 37° C.). The turnover per time of the substrate is determined directly with a fluorescence reader (Ex 540 nm/Em 590 nm) like Envision 2104 Multilabel Reader (PERKIN ELMER) for 60 min.

[2] = biological target: AOC1 (Homo sapiens (Human), UniProt P19801); assay: AOC1 biochemical assay (Amplex Red)
Experimental: The Amplex® Red Assay (available from Thermo Fisher Scientific) provides a sensitive method for the detection of H2O2 generated during enzymatic reactions like the amine oxidation catalyzed by AOC1. The assay reagent is a colorless substrate (N-acetyl-3,7-dihydroxyphenoxazine) that reacts in a 1:1 stoichiometry with hydrogen peroxide (H2O2) to produce the fluorescent dye resorufin (7-hydroxyphenoxazin-3-one, excitation/emission maxima=570/585 nm).
An aliquot of 3 μL of the compound dilution is added to a 384 well plate (Optiplate, PS, flat bottom F, black, PERKIN ELMER, #6007270) in a DMSO concentration of 6.6%.
An AOC1 enzyme aliquot (#8297-AO-010, R&D Systems) is thawed on ice, diluted in reaction buffer and added in a volume of 7 μL to the wells to give a final assay concentration of 1 ng/well. After incubation of inhibitor and enzyme for 30 minutes at 37° C., the enzymatic reaction is started with the addition of 10 μL of Amplex® Red reaction mix (final assay concentration: 100 mM sodiumphosphate, 120 μM Amplex® Red reagent (#A22177 Molecular Probes), 1.5 U/mL Horseradish Peroxidase (#P8375 Sigma-Aldrich), 200 μM putrescine (#P7505 Sigma-Alrdich), 0.05% Pluronic F-127 (#P3000MP Sigma-Aldrich), pH 7.4, 37° C.).
After an incubation for 30 minutes at 37° C. the turnover of the substrate is determined directly (or after the addition of an excess of an amine-oxidase inhibitor) with a fluorescence reader (Ex 540 nm/Em 590 nm) like Envision 2104 Multilabel Reader (PERKIN ELMER).

[3] = biological target: human AOC3 enzyme (Homo sapiens (Human), UniProt Q16853); assay: AOC3 biochemical assay (MAO-Glo)
Description: The MAO-Glo™ Assay (commercially available from PROMEGA, #V1402) provides a sensitive method for the measurement of monoamine oxidase (MAO) activity (Valley, M. P. et al., 2006, Anal. Biochem. 359: 238-246) from a variety of tissues, biofluids or recombinant expressed or purified enzymes. As substrate a derivate of the beetle luciferin ((4S)-4,5-dihydro-2-(6-hydroxybenzothiazolyl)-4-thiazole-carboxylic acid) is used, which is oxidized at a primary amine moiety. After a spontaneous elimination and a catalyzed esterase reaction, the turnover of the luciferine by the luciferase is recorded as a signal of AOC3 activity.
An aliquot of 3 μL of the compound dilution is added to a 384 well plate (Optiplate, PS, flat bottom, white, PERKIN ELMER, #6007290) with a final DMSO concentration of 6.6%. Recombinant CHO cells, overexpressing the human (1500 cells/well), mouse (1000 cells/well) or rat (500 cells/well) AOC3 enzyme are diluted in reaction buffer and added in a volume of 15 μL to the wells. After incubation for 20 minutes at 37° C., 2 μL of MAO substrate (dissolved in DMSO at 16 mM, adjusted to assay concentration in reaction buffer to a final assay concentration of 20 μM) is added and further incubated for 60 minutes at 37° C. The turnover of the substrate is determined by the addition of 20 μL of the detection-mix which was generated by the addition of reconstitution buffer with esterase (PROMEGA, #V1402) to the luciferine detection reagent (PROMEGA, #V1402). After an incubation period of 20 minutes, the luminescent signal is measured with Envision 2104 Multilabel Reader (PERKIN ELMER).

[4] = comparison table, read-out: IC50 AOC2
[5] = comparison table, read-out: IC50 AOC1
[6] = comparison table, read-out: IC50 AOC3

Chain of AOC2 (O75106 whole entry): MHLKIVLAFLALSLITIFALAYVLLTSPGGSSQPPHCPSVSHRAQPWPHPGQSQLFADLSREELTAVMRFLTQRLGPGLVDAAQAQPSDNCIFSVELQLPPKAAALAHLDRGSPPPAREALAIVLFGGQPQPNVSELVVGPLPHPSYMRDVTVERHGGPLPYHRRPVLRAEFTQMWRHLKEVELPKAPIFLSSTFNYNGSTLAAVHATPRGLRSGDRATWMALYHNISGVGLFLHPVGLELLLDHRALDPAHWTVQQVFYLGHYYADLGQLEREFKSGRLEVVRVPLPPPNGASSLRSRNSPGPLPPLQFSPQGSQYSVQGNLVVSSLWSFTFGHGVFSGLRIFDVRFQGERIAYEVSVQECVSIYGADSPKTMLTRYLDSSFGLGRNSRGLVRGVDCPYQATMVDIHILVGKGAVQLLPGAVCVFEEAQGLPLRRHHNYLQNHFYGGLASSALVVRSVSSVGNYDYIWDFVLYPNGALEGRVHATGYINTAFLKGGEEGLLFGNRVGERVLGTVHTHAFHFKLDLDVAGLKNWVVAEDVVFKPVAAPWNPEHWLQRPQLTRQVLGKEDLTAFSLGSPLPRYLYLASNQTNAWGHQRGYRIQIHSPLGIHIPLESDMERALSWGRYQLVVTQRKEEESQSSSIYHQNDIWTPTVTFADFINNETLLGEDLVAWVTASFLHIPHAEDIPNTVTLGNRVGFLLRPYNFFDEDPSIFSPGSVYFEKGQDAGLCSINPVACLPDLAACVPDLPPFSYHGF
Chain of human AOC3 enzyme (Q16853 whole entry): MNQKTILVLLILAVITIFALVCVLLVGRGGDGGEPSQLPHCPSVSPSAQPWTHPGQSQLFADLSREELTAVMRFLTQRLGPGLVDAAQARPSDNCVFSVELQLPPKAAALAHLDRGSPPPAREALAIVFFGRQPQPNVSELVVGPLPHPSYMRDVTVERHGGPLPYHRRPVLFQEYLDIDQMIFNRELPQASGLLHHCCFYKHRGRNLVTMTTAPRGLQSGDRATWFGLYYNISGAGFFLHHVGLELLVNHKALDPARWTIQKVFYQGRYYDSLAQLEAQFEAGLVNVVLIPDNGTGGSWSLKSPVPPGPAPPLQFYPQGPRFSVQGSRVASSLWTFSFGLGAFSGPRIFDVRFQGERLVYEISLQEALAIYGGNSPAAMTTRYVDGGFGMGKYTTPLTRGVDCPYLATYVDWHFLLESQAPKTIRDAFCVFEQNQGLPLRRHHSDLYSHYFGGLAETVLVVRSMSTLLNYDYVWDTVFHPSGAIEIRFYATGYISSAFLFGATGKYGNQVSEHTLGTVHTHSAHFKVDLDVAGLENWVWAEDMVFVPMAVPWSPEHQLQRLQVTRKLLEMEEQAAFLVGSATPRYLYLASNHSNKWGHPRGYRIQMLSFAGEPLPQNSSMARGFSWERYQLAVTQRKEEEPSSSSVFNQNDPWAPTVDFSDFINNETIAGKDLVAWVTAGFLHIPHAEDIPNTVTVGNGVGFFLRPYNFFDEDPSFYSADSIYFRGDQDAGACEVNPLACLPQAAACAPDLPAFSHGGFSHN
Chain of AOC1 (P19801 20-751): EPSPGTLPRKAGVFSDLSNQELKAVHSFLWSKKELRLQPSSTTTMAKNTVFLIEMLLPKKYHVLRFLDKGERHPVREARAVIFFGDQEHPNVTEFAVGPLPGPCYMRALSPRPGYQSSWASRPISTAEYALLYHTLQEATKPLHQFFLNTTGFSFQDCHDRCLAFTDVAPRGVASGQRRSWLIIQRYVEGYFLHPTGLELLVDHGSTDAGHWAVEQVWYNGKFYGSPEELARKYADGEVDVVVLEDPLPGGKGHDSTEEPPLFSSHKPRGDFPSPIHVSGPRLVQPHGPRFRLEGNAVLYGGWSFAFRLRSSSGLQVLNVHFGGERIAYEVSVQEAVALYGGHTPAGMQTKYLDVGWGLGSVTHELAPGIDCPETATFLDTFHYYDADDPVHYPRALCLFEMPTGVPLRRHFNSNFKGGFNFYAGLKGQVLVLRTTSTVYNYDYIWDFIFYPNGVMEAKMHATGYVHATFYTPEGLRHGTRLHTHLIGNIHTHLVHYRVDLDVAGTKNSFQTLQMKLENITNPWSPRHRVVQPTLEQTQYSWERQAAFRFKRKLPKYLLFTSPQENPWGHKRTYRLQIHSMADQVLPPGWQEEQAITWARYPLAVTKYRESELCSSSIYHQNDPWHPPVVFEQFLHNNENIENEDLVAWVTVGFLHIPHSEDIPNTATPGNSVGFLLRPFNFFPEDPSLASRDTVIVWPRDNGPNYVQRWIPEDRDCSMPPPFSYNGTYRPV

IC50 ([1]; read-out: AOC2 IC50)	IC50 ([2]; read-out: AOC1 IC50)	IC50 ([3]; read-out: AOC3 IC50)	SMILES	other results
–	–	–	CN(C)S(=O)(=O)c1ccc(OC/C(=C/F)CN)cc1 [Compound 14 of WO 2013/163675, reference compound]	fold less active against AOC2 as compared to AOC3 (ratio IC50 AOC2/IC50 AOC3) [1]: ca. 145 fold; IC50 [1, 4]: 1160 nM; IC50 ([1]; read-out: IC50 AOC2): 1160 nM; IC50 [2, 5]: > 50 µM; IC50 [3, 6]: 8 nM
–	–	–	NC/C(=C\F)COc1cnc(N2CCC(O)CC2)nc1 [Example 2 of WO 2018/027892, reference compound]	IC50 [2, 5]: 0.269 µM; IC50 [3, 6]: 20 nM
1140 nM	> 50 µM	33 nM	CCC(=O)NC1CCN(S(=O)(=O)c2ccc(OC/C(=C/F)CN)nc2)CC1 [Example 02]	–
1020 nM	23.6 µM	25 nM	CNC(=O)[C@@]12C[C@@H]1CN(S(=O)(=O)c1ccc(OC/C(=C/F)CN)nc1)C2 [Example 03]	–
806 nM	> 50 µM	49 nM	NC/C(=C\F)COc1ccc(S(=O)(=O)N2CCC(N3CCNC3=O)CC2)cn1 [Example 04]	–
–	–	–	CO[C@H]1CCN(c2ncc(OC/C(=C/F)CN)cn2)C1 [Example 5 of WO 2018/027892, reference compound]	IC50 [1, 4]: 497 nM; IC50 [2, 5]: 0.268 µM; IC50 [3, 6]: 13 nM
–	–	–	NC/C(=C\F)COc1cnc(N2CC[C@H](O)C2)nc1 [Example 6 of WO 2018/027892, reference compound]	IC50 [1, 4]: 1120 nM; IC50 [2, 5]: 1.17 µM; IC50 [3, 6]: 59 nM
593 nM	> 50 µM	–	CC(=O)N[C@H]1CCCN(S(=O)(=O)c2ccc(OC/C(=C/F)CN)nc2)C1 [Example 06]	–
531 nM	> 50 µM	37 nM	CNC(=O)NC1CCN(S(=O)(=O)c2ccc(OC/C(=C/F)CN)nc2)CC1 [Example 07]	–
524 nM	> 50 µM	37 nM	CN(C(N)=O)C1CCN(S(=O)(=O)c2ccc(OC/C(=C/F)CN)nc2)CC1 [Example 08]	–
489 nM	6.17 µM	39 nM	NC/C(=C\F)COc1ccc(S(=O)(=O)N2CCC(C(=O)N3CCOCC3)(c3ccccc3)CC2)cn1 [Example 09]	–
407 nM	> 50 µM	52 nM	NC/C(=C\F)COc1ccc(S(=O)(=O)N2CCC(C(=O)N3CCOCC3)CC2)cn1 [Example 10]	–
401 nM	> 50 µM	12 nM	CCNC(=O)C1CCN(S(=O)(=O)c2ccc(OC/C(=C/F)CN)nc2)CC1 [Example 11]	–
385 nM	> 50 µM	38 nM	CN(C)C(=O)C1CCN(S(=O)(=O)c2ccc(OC/C(=C/F)CN)nc2)CC1 [Example 12]	–
358 nM	> 50 µM	43 nM	NC/C(=C\F)COc1ccc(S(=O)(=O)N2CCC(C(=O)N3CCC3)CC2)cn1 [Example 13]	–
306 nM	14.3 µM	41 nM	CC(=O)N1CC(C2CCN(S(=O)(=O)c3ccc(OC/C(=C/F)CN)nc3)CC2)C1 [Example 14]	–
263 nM	> 50 µM	38 nM	CC(=O)NCC1CCN(S(=O)(=O)c2ccc(OC/C(=C/F)CN)nc2)CC1 [Example 15]	–
262 nM	> 50 µM	30 nM	CN(C)C(=O)CC1CCN(S(=O)(=O)c2ccc(OC/C(=C/F)CN)nc2)CC1 [Example 16]	–
251 nM	> 50 µM	8 nM	NC/C(=C\F)COc1ccc(S(=O)(=O)N2CCC(C(N)=O)CC2)cn1 [Example 17]	–

IC50 ([1]; read-out: AOC2 IC50)	IC50 ([2]; read-out: AOC1 IC50)	IC50 ([3]; read-out: AOC3 IC50)	SMILES	other results
244 nM	> 50 µM	37 nM	CC1(O)CN(S(=O)(=O)c2ccc(OC/C(=C/F)CN)nc2)C1 [Example 18]	–
214 nM	> 50 µM	32 nM	CCNC(=O)CC1CCN(S(=O)(=O)c2ccc(OC/C(=C/F)CN)nc2)CC1 [Example 19]	–
192 nM	> 50 µM	54 nM	CC(=O)N(C)C1CCN(S(=O)(=O)c2ccc(OC/C(=C/F)CN)nc2)CC1 [Example 20]	–
190 nM	> 50 µM	20 nM	CN1CCN(C2CCN(S(=O)(=O)c3ccc(OC/C(=C/F)CN)nc3)CC2)C1=O [Example 21]	–
188 nM	> 50 µM	11 nM	COC(=O)CC1CCN(S(=O)(=O)c2ccc(OC/C(=C/F)CN)nc2)CC1 [Example 22]	–
180 nM	> 50 µM	62 nM	CC(=O)NC1CCN(S(=O)(=O)c2ccc(OC/C(=C/F)CN)nc2)C1 (stereo not drawn) [Example 23]	–
165 nM	> 50 µM	–	CNC(=O)[C@@H]1CCN(S(=O)(=O)c2ccc(OC/C(=C/F)CN)nc2)C1 [Example 24]	–
164 nM	26.7 µM	36 nM	NC/C(=C\F)COc1ccc(S(=O)(=O)N2CC[C@H](C(=O)N3CCOCC3)C2)cn1 [Example 25]	–
164 nM	> 50 µM	45 nM	CC(C)(O)C1CN(S(=O)(=O)c2ccc(OC/C(=C/F)CN)nc2)C1 [Example 26]	–
160 nM	> 50 µM	51 nM	CN(C)C(=O)[C@H]1CCN(S(=O)(=O)c2ccc(OC/C(=C/F)CN)nc2)C1 [Example 27]	–
151 nM	> 50 µM	–	CNC(=O)[C@H]1CCN(S(=O)(=O)c2ccc(OC/C(=C/F)CN)nc2)C1 [Example 29]	–
–	27.2 µM	18 nM	COCCN(C)C(=O)[C@H]1[C@@H]2CN(S(=O)(=O)c3ccc(OC/C(=C/F)CN)nc3)C[C@@H]21 [Example 59]	–
–	> 50 µM	18 nM	NC/C(=C\F)COc1ccc(S(=O)(=O)N2CCC(C(=O)NCCO)CC2)cn1 [Example 62]	–
–	> 50 µM	19 nM	NC/C(=C\F)COc1ccc(S(=O)(=O)N2CCC(C(=O)NC3CC3)CC2)cn1 [Example 63]	–
–	> 50 µM	17 nM	NC/C(=C\F)COc1ccc(S(=O)(=O)N2CCC(C(=O)NCCF)CC2)cn1 [Example 64]	–
–	> 50 µM	11 nM	CC(F)(F)CNC(=O)C1CCN(S(=O)(=O)c2ccc(OC/C(=C/F)CN)nc2)CC1 [Example 65]	–
–	31 µM	23 nM	COCCNC(=O)[C@H]1[C@@H]2CN(S(=O)(=O)c3ccc(OC/C(=C/F)CN)nc3)C[C@@H]21 [Example 66]	–
–	–	–	NC/C(=C\F)COc1ccc(S(=O)(=O)N2CC[C@H](O)C2)cc1 [Reference compound B, reference compound]	IC50 ([2]; comparison table, unit μM, read-out: IC50 AOC1): > 50 µM; IC50 [3, 6]: 27 nM

SMILES	IC50 ([1]; read-out: AOC2 IC50)	IC50 ([2]; read-out: AOC1 IC50)	IC50 ([3]; read-out: AOC3 IC50)	other results
CNC(=O)[C@H]1[C@@H]2CN(S(=O)(=O)c3ccc(OC/C(=C/F)CN)nc3)C[C@@H]21 [Example 01, trans-3-[6-((E)-2-Aminomethyl-3-fluoro-allyloxy)-pyridine-3-sulfonyl]-3-aza-bicyclo[3.1.0]hexane-6-carboxylic acid methylamide trifluoroacetate]	162 nM	43.4 µM	12 nM	–

— patent US12178809B2, “Pyridinyl sulfonamide derivatives, pharmaceutical compositions and uses thereof” (Boehringer Ingelheim International GmbH, priority 2018, dated 2024)
